Reference: patent US9597407B2, “Targeted antimicrobial moieties” (C3 Jian, Inc., priority 2009, dated 2017)
“Also recorded” adds a separate entry of the source. Ends that are not written are not given here.

How the values were obtained:
bacteria = assay: Binding of targeting peptides to microorganisms (Table 3); conditions: preferably 1x PBS; for Target(s) (microorganism bound by the targeting peptide) / Target(s) (microorganisms bound by the targeting peptide): peptide binding in aqueous buffers that varied depending on peptide solubility; for Target(s): microorganism bound by the targeting peptide, binding in aqueous buffers chosen by peptide solubility
microorganisms = assay: Morphology, biofilm and growth disruption by peptides (Table 5); type: cell-based; design: key: A: Peptide aggregates; B: Less hyphal formation; Clumps; Diffuse clumps and small polyps; F: Diffuse growth; H: Thin; I: Growth inhibition; Microcolony formation; Rippled; Small polyps; Thick; W: Halo formation on top, microlonies on bottom
Source text: In certain embodiments peptides that induce alterations in phenotype or other biological activities can also be used as antimicrobial effector moieties.

PF-645 (chain 1 SNSVQQG; chain 2 SNSVQQG; Peptide with targeting and/or antimicrobial activity)
Target(s) (microorganism bound by the targeting peptide) (bacteria): Mycobacteria spp
Organism, effect (morphology, biofilm and growth disruption) (microorganisms; C. albicans): C. albicans (B)
Organism, effect (morphology, biofilm and growth disruption) (microorganisms; S. pneumoniae): S. pneumoniae (I)

HKNKLNIPHIKS [PF-477]
Target(s) (microorganisms bound by the targeting peptide) (bacteria): S. epidermidis; also recorded: M. luteus; also recorded: C. albicans; also recorded: S. pneumoniae; also recorded: C. jeikeium; also recorded: C. jejuni
Organism, effect (morphology, biofilm and growth disruption) (microorganisms; S. pneumoniae): S. pneumoniae (H)

PF-661 (chain 1 PDEDIRRRAILPPAGPCRPMSPE; chain 2 PDEDIRRRAILPPAGPCRPMSPE; Peptide with targeting and/or antimicrobial activity)
Target(s) (microorganism bound by the targeting peptide) (bacteria): Mycobacteria spp
Organism, effect (morphology, biofilm and growth disruption) (microorganisms; MRSA): MRSA (R)

PF-631 (chain 1 LIIYFSKTGNTARATRQI; chain 2 LIIYFSKTGNTARATRQI; Peptide with targeting and/or antimicrobial activity)
Target(s) (microorganism bound by the targeting peptide) (bacteria): S. epidermidis and P. aeruginosa and C. albicans and MRSA and S. pneumoniae and E. faecalis and C. jeikeium
Organism, effect (morphology, biofilm and growth disruption) (microorganisms; E. faecalis): E. faecalis (H)
Organism, effect (morphology, biofilm and growth disruption) (microorganisms; S. pneumoniae): S. pneumoniae (I)

PF-434 (GQLLADKRPARDYNRK; Peptide with targeting and/or antimicrobial activity)
Target(s) (microorganisms bound by the targeting peptide) (bacteria): S. epidermidis; also recorded: M. luteus; also recorded: S. pneumoniae; also recorded: C. jeikeium
Organism, effect (morphology, biofilm and growth disruption) (microorganisms; S. pneumoniae): S. pneumoniae (S)

PF-292 (SFVSTTVRLIFEESKRYKF; Peptide with targeting and/or antimicrobial activity)
Target(s) (bacteria): S. epidermidis; also recorded: B. subtilis; also recorded: B. fragilis
Organism, effect (microorganisms; B. subtilis): B. subtilis (C)
Organism, effect (microorganisms; S. epidermidis): S. epidermidis (C)

PF-313 (YITSHKNARAIIKKFERDEILEEVITHYLNRK; Peptide with targeting and/or antimicrobial activity)
Target(s) (bacteria): S. epidermidis; also recorded: C. difficile
Organism, effect (microorganisms; S. epidermidis): S. epidermidis (C)

PF-647 (chain 1 GTFLGQKCAAATAS; chain 2 GTFLGQKCAAATAS; Peptide with targeting and/or antimicrobial activity)
Target(s) (microorganism bound by the targeting peptide) (bacteria): Mycobacteria spp
Organism, effect (morphology, biofilm and growth disruption) (microorganisms; C. albicans): C. albicans (B)
Organism, effect (morphology, biofilm and growth disruption) (microorganisms; S. pneumoniae): S. pneumoniae (R)

PF-C052 (SRFRNGV; Peptide with targeting and/or antimicrobial activity)
Target(s) (microorganism bound by the targeting peptide) (bacteria): A. naeslundii; also recorded: F. nucleatum; also recorded: S. mutans
Organism, effect (morphology, biofilm and growth disruption) (microorganisms; P. gingivalis): P. gingivalis (H)

PF-693 (chain 1 PDPAR; chain 2 PDPAR; Peptide with targeting and/or antimicrobial activity)
Target(s) (microorganism bound by the targeting peptide) (bacteria): Mycobacteria spp
Organism, effect (morphology, biofilm and growth disruption) (microorganisms; S. pneumoniae): S. pneumoniae (A)

PF-683 (chain 1 LWPVA; chain 2 LWPVA; Peptide with targeting and/or antimicrobial activity)
Target(s) (microorganism bound by the targeting peptide) (bacteria): Mycobacteria spp
Organism, effect (morphology, biofilm and growth disruption) (microorganisms; MRSA): MRSA (R)
Organism, effect (morphology, biofilm and growth disruption) (microorganisms; S. epidermidis): S. epidermidis (R)
Organism, effect (morphology, biofilm and growth disruption) (microorganisms; S. pneumoniae): S. pneumoniae (H)

LSLATFAKIFMTRSNWSLKRFNRL [PF-278]
Target(s) (bacteria): M. luteus; also recorded: A. baumannii
Organism, effect (microorganisms; C. albicans): C. albicans (B)
Organism, effect (microorganisms; M. luteus): M. luteus (R)
Organism, effect (microorganisms; S. epidermidis): S. epidermidis (I)

PF-297 (ISKGIDDIVYVINKILSIGNIFKIIKRK; Peptide with targeting and/or antimicrobial activity)
Target(s) (bacteria): S. epidermidis; also recorded: B. subtilis; also recorded: B. fragilis
Organism, effect (microorganisms; B. subtilis): B. subtilis (C)
Organism, effect (microorganisms; S. epidermidis): S. epidermidis (C)

PF-C064 (DEEALEMGANLYAQFAIDFLNSKK; Peptide with targeting and/or antimicrobial activity)
Target(s) (microorganism bound by the targeting peptide) (bacteria): A. naeslundii; also recorded: F. nucleatum; also recorded: P. gingivalis; also recorded: S. mutans; also recorded: T. denticola
Organism, effect (morphology, biofilm and growth disruption) (microorganisms; F. nucleatum): F. nucleatum (T)

PF-429 (AATLICVGSGIMSSL; Peptide with targeting and/or antimicrobial activity)
Target(s) (microorganisms bound by the targeting peptide) (bacteria): S. epidermidis; also recorded: S. pneumoniae; also recorded: C. jeikeium
Organism, effect (morphology, biofilm and growth disruption) (microorganisms; E. faecalis): E. faecalis (C)
Organism, effect (morphology, biofilm and growth disruption) (microorganisms; MRSA): MRSA (C)
Organism, effect (morphology, biofilm and growth disruption) (microorganisms; S. epidermidis): S. epidermidis (C)
Organism, effect (morphology, biofilm and growth disruption) (microorganisms; S. pneumoniae): S. pneumoniae (M)

PF-642 (chain 1 FTTPMIGIPAGLLGGSYYLKRREEKGK; chain 2 FTTPMIGIPAGLLGGSYYLKRREEKGK; Peptide with targeting and/or antimicrobial activity)
Target(s) (microorganism bound by the targeting peptide) (bacteria): M. luteus and MRSA and C. jeikeium
Organism, effect (morphology, biofilm and growth disruption) (microorganisms; MRSA): MRSA (M)

PF-C139 (LLASHPERLSLGVFFVYRVLHLLLENT; Peptide with targeting and/or antimicrobial activity)
Target(s) (microorganism bound by the targeting peptide) (bacteria): A. naeslundii; also recorded: F. nucleatum; also recorded: P. gingivalis; also recorded: S. mutans; also recorded: T. denticola
Organism, effect (morphology, biofilm and growth disruption) (microorganisms; S. mutans): S. mutans (F)

PF-C142 (DFPPLSFFRRRFHAYTAPIDNFFGANPF; Peptide with targeting and/or antimicrobial activity)
Target(s) (microorganism bound by the targeting peptide) (bacteria): A. naeslundii; also recorded: F. nucleatum; also recorded: P. gingivalis; also recorded: S. mutans; also recorded: T. denticola
Organism, effect (morphology, biofilm and growth disruption) (microorganisms; S. mutans): S. mutans (I)

PF-164 (EEVSRALAGIGLGLGCRIG; Peptide with targeting and/or antimicrobial activity)
Target(s) (bacteria): S. epidermidis; also recorded: M. luteus; also recorded: E. coli; also recorded: C. jeikeium
Organism, effect (microorganisms; C. jeikeium): C. jeikeium (R)

PF-656 (chain 1 RGMFVPFHDVDCVQ; chain 2 RGMFVPFHDVDCVQ; Peptide with targeting and/or antimicrobial activity)
Target(s) (microorganism bound by the targeting peptide) (bacteria): Mycobacteria spp
Organism, effect (morphology, biofilm and growth disruption) (microorganisms; MRSA): MRSA (R)

PF-685 (chain 1 PTLWLACL; chain 2 PTLWLACL; Peptide with targeting and/or antimicrobial activity)
Target(s) (microorganism bound by the targeting peptide) (bacteria): Mycobacteria spp
Organism, effect (morphology, biofilm and growth disruption) (microorganisms; C. jeikeium): C. jeikeium (R)
Organism, effect (morphology, biofilm and growth disruption) (microorganisms; E. faecalis): E. faecalis (R)
Organism, effect (morphology, biofilm and growth disruption) (microorganisms; MRSA): MRSA (M)
Organism, effect (morphology, biofilm and growth disruption) (microorganisms; S. epidermidis): S. epidermidis (M)
Organism, effect (morphology, biofilm and growth disruption) (microorganisms; S. pneumoniae): S. pneumoniae (M)

PF-613 (ADEFAKL; Peptide with targeting and/or antimicrobial activity)
Target(s) (microorganism bound by the targeting peptide) (bacteria): C. jeikeium
Organism, effect (morphology, biofilm and growth disruption) (microorganisms; E. faecalis): E. faecalis (A)
Organism, effect (morphology, biofilm and growth disruption) (microorganisms; MRSA): MRSA (C)
Organism, effect (morphology, biofilm and growth disruption) (microorganisms; S. epidermidis): S. epidermidis (R)

PF-350 (LAVILRAIVY; Peptide with targeting and/or antimicrobial activity)
Target(s) (bacteria): S. epidermidis; also recorded: E. coli; also recorded: E. faecalis; also recorded: C. jeikeium; also recorded: C. jejuni
Organism, effect (microorganisms; E. coli): E. coli (C)
Organism, effect (microorganisms; MRSA): MRSA (C)
Organism, effect (microorganisms; S. epidermidis): S. epidermidis (C)

FELVDWLETNLGKILKSKSA-NH2 [PF-522]
Target(s) (microorganisms bound by the targeting peptide) (bacteria): S. epidermidis; also recorded: E. coli; also recorded: P. aeruginosa; also recorded: S. pneumoniae; also recorded: E. faecalis
Organism, effect (morphology, biofilm and growth disruption) (microorganisms; S. pneumoniae): S. pneumoniae (H)

PF-C180 (TVEELDKAFTWGAAAALAIGVIAINVGLAAGYCYNNNDVF; Peptide with targeting and/or antimicrobial activity)
Target(s) (microorganism bound by the targeting peptide) (bacteria): F. nucleatum; also recorded: P. gingivalis; also recorded: S. mutans; also recorded: T. denticola
Organism, effect (morphology, biofilm and growth disruption) (microorganisms; P. gingivalis): P. gingivalis (R)
Organism, effect (morphology, biofilm and growth disruption) (microorganisms; S. mutans): S. mutans (S)

PF-405 (LVRIEVDDLEEWYERNFI; Peptide with targeting and/or antimicrobial activity)
Target(s) (microorganisms bound by the targeting peptide) (bacteria): S. epidermidis; also recorded: E. coli; also recorded: E. faecalis
Organism, effect (microorganisms; MRSA): MRSA (M)

PF-208 (DAYHCHLVRSPDAHDLSMRIGFV; Peptide with targeting and/or antimicrobial activity)
Target(s) (bacteria): S. epidermidis and C. albicans and MRSA and S. pneumoniae and E. faecalis and C. jeikeium and C. jejuni
Organism, effect (microorganisms; C. jeikeium): C. jeikeium (A)
Organism, effect (microorganisms; S. epidermidis): S. epidermidis (D)

KKFKIFVIINWFYHKYIILNFEENF [PF-C085]
Target(s) (microorganism bound by the targeting peptide) (bacteria): A. naeslundii; also recorded: F. nucleatum; also recorded: P. gingivalis; also recorded: S. mutans; also recorded: T. denticola
Organism, effect (morphology, biofilm and growth disruption) (microorganisms; S. mutans): S. mutans (F)

PF-662 (chain 1 GKQSRAHGPVASRREFRRKSG; chain 2 GKQSRAHGPVASRREFRRKSG; Peptide with targeting and/or antimicrobial activity)
Target(s) (microorganism bound by the targeting peptide) (bacteria): Mycobacteria spp
Organism, effect (morphology, biofilm and growth disruption) (microorganisms; S. pneumoniae): S. pneumoniae (A)

PF-C120 (ASLSTMTFKVMELKELIILLCGLTMLMIQTEFV; Peptide with targeting and/or antimicrobial activity)
Target(s) (microorganism bound by the targeting peptide) (bacteria): A. naeslundii; also recorded: F. nucleatum; also recorded: P. gingivalis; also recorded: S. mutans; also recorded: T. denticola
Organism, effect (morphology, biofilm and growth disruption) (microorganisms; F. nucleatum): F. nucleatum (T)
